Results from PubChem BioAssay AID1645864 (Buhrlage Lab, Dana-Farber Cancer Institute and Novartis …, 2021).
pIC50: −log10 of the molar value. Active and inactive are the calls of the source.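 Rule for the calls: active = maximal inhibition of USP17 at or above 30% in the confirmation dose-response, a value not among the printed readouts; inactive = the rest.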

Molecular target: Ubiquitin carboxyl-terminal hydrolase 17-like protein 5 (Homo sapiens) (UniProt A8MUK1)
Test: ubiquitin-specific protease 17 DUB inhibitors, concentration-effect assay, cell-free, verification of initial screening actives (AID 1645864)
Details: purified USP17, ubiquitin-rhodamine cleavage fluorescence, 3 h

Sequence of Ubiquitin carboxyl-terminal hydrolase 17-like protein 5 (Homo sapiens) (A8MUK1 whole entry, looked up): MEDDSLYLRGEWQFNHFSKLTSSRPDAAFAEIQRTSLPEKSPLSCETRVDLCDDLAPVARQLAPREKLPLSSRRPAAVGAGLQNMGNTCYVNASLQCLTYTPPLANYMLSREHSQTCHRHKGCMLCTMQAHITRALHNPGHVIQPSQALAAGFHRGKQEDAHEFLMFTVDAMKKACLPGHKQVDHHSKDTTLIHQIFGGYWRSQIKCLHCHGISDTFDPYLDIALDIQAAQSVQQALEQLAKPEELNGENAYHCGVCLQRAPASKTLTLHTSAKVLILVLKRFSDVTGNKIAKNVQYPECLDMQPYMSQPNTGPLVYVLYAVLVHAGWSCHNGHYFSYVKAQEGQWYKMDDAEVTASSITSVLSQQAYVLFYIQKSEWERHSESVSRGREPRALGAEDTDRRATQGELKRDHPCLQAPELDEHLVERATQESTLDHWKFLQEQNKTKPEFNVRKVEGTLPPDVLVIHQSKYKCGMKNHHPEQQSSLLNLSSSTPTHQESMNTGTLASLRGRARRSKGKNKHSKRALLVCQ

pIC50	IC50	SMILES
5.37		CCOc1ccc(-c2ccc3nnc(SCC(=O)Nc4cccc(C(C)=O)c4)n3n2)cc1
	> 50 µM (inactive)	Cc1ccc(C(=O)N2CCCC3(C2)Nc2cccnc2NC3=NC2CCCC2)s1 (stereo unspecified)
	> 50 µM (inactive)	CCCc1nc2sc3c(NCCN4CCOCC4)ncnc3c2c2c1CCC2
	> 50 µM (inactive)	O=C(Nc1ccc2c(c1)OCCO2)C1CCC(Cn2cnc3ccccc3c2=O)CC1 (stereo unspecified)
5.12		CC(C)c1cc(Nc2cccc(F)c2)n2nc(-c3cccnc3)nc2n1
	> 50 µM (inactive)	O=S(=O)(c1ccc(F)cc1)N1CCCC1c1ccnc(Nc2cnccn2)n1 (stereo unspecified)
4.36		Cc1cc(C)c2cc(CN(CCc3ccccc3)C(=O)Nc3ccccc3)c(=O)[nH]c2c1
5.51		CCCCNc1nc2c(-c3ccccc3)nnn2c2ccccc12
	> 50 µM (inactive)	CCOc1ccc(C2=NCCNC3=C2C(c2ccccc2)N(c2ccccc2)C3=O)cc1 (stereo unspecified)
	> 50 µM (inactive)	CN(C)S(=O)(=O)c1ccc(N2CCCC2)c(C(=O)Nc2ccc(-c3cn4ccsc4n3)cc2)c1
	> 50 µM (inactive)	N#C/C(=C\c1ccc(-c2cc(Cl)ccc2Cl)o1)c1nnc2n1CCCCC2
4.42		O=C(Cn1c(=O)n(Cc2ccccc2)c(=O)c2ncccc21)NCc1ccccc1Cl
5.81		Cn1c2ccccc2c(=O)c2c(=O)n(Cc3ccccc3)c(-c3ccco3)nc21
	> 50 µM (inactive)	O=C(NC(Cc1ccccc1)c1nc2ccccc2[nH]1)c1ccccn1 (stereo unspecified)
6.18		Cc1ccccc1NC(=O)Nc1ccccc1OCc1cc(=O)n2cccc(C)c2n1
	> 50 µM (inactive)	CCC(C)Oc1cccc(C(=O)Nc2ccc(CN3CCOCC3)cc2)c1 (stereo unspecified)
	> 50 µM (inactive)	CC(CCc1ccccc1)NC(=O)C(=O)c1cn(CC(=O)N2CCOCC2)c2ccccc12 (stereo unspecified)
	> 50 µM (inactive)	Cc1cc(SCc2ncon2)c(C)cc1Cl
4.84		Cc1ccc(NC(=O)CNC(=O)c2cc3ccccc3o2)cc1
4.80		CCn1c(SCC(=O)c2c(N)n(CC(C)C)c(=O)n(C)c2=O)nnc1-c1ccccc1
	> 50 µM (inactive)	COc1cccc(NC(=O)c2ccc(F)cc2Cl)c1
4.61		Cc1cc(O)c2c3c(c(O)c4c(c13)O[C@@H](C)C4(C)C)C(=O)C2=O
	> 50 µM (inactive)	COC(=O)C1C(c2ccc(OC)cc2)C2(C(=O)c3ccccc3C2=O)C2C=Cc3ccccc3N12 (stereo unspecified)
4.52		O=C(CCc1c[nH]c2ccccc12)Nc1ccc(N2CCOCC2)cc1

pIC50	IC50	SMILES
	> 50 µM (inactive)	CCOC(=O)Nc1ccc(N2CCn3c(nc4ccccc43)C2)cc1OC
6.40		CCCCC/C=C/C=C/C(=O)OC1C(O)CC(c2ccc3c(c2O)C(=O)c2c(O)cc4cc(C)cc(O)c4c2C3=O)OC1C (stereo unspecified)
	> 50 µM (inactive)	O=C(Cc1cccnc1)Nc1ccc(N2CCN(C3CCCCC3)C2=O)nc1
	> 50 µM (inactive)	CNC(=O)c1cc2nc(N(C)C)n(-c3ccc(F)cc3)c2s1
	> 50 µM (inactive)	COc1ccc(C(C)=O)cc1CC(=O)Nc1nc2ccccc2[nH]1
	> 50 µM (inactive)	Nc1ccc(F)c(NS(=O)(=O)c2ccccc2)c1
4.70		COc1cc(/C=C/C(=O)OCC(=O)Nc2ccc([N+](=O)[O-])cc2OC)ccc1O
> 7.30		Cc1ccc2c(C)nc(Nc3ncc4c(n3)CC(c3ccco3)CC4=O)nc2c1 (stereo unspecified)
	> 50 µM (inactive)	COC1C(O)=C2C(=O)O/C(C)=C/C=C/C=C/C=C/CC(c3ccccc3)NC(=O)/C=C/C=C/C=C\C=C\C2(C)C1O (stereo unspecified)
	> 50 µM (inactive)	COc1ccccc1-c1ccc(CN2[C@@H](c3ccccc3)C[C@@H]3NC(=O)CCC[C@H]32)cc1
5.66		O=C(CCCn1c(=O)c2ccccc2n(CC(=O)NCc2ccccc2Cl)c1=O)NCc1ccc2c(c1)OCO2
4.39		Clc1ccccc1CSc1nnc(C2CCCCC2)n1Cc1ccccc1
5.01		Cc1cc(=O)n2c3c(c4c(cc13)c(CO)cc(=O)n4C)OC2
4.41		c1ccc2c(-c3nc(C4CC4)no3)nnc(NCc3ccncc3)c2c1
4.66		O=C1C[C@@H](O)[C@H](O)[C@@]23O[C@@]12C1(Oc2cccc4cccc(c24)O1)[C@@H]1O[C@@H]1[C@@H]3O
	> 50 µM (inactive)	Cc1ccc(-c2nnc(-n3ncc(C#N)c3N)c3ccccc23)cc1C
	> 50 µM (inactive)	CN(C)c1ccc(CCN2CCc3nc4cccnc4cc3C2)cc1
	> 50 µM (inactive)	CN1CC2CN(C(=O)Nc3cccnc3)CCN2Cc2ccccc21 (stereo unspecified)
5.48		CCC(C)c1ccc(-c2csc(Cn3c(CN4CCN(C)CC4)nc4ccccc4c3=O)n2)cc1 (stereo unspecified)
	> 50 µM (inactive)	COc1ccc(C(=O)NCC(c2ccc3c(c2)CCCN3C)N2CCCC2)cc1 (stereo unspecified)
	> 50 µM (inactive)	O=C(COc1nc2ccccc2nc1N1CCOCC1)Nc1cccc(S(=O)(=O)N2CCCCC2)c1
	> 50 µM (inactive)	O=C(CSc1cn(Cc2ccccc2)c2ccccc12)Nc1ccc2c(c1)OCCO2
	> 50 µM (inactive)	CCN1C(=O)c2cccnc2Sc2cc(NC(=O)c3ccc(Cl)s3)ccc21
	> 50 µM (inactive)	Cc1ccccc1-c1noc(-c2ccccc2OCC(=O)NC(C)C)n1

pIC50	IC50	SMILES
4.46		O=C(COc1cccc(C(=O)NCc2ccccc2)c1)Nc1ccc(Oc2ccccc2)cc1
	> 50 µM (inactive)	O=C(NCc1ccc2c(c1)OCO2)c1nc(-c2ccccc2)n(-c2ccccc2)n1
5.54		CCOC(=O)c1ccc(NC(=O)Cn2c(=O)n(CC(=O)NCc3ccco3)c(=O)c3ccccc32)cc1
	> 50 µM (inactive)	CN(C)S(=O)(=O)N1CCCC2(C1)Nc1cccnc1NC2=NC1CCCC1 (stereo unspecified)
4.79		CC(=O)Nc1ccc(NC(=O)c2cc(-c3cc(C)cc(C)c3O)n[nH]2)cc1
	> 50 µM (inactive)	CC1Oc2ccccc2C(=O)N(Cc2ccc([N+](=O)[O-])cc2)C1=O (stereo unspecified)
	> 50 µM (inactive)	CC(=O)Nc1ccc(Cc2nc(-c3ccc4c(c3)nc(C)c(=O)n4C3CCCC3)no2)cc1
4.83		COc1ccc(/C=C/C(=O)Nc2c3c(nc4c2CCC4)CCCC3)cc1
4.52		Cc1cc(NCC2CC2)n2nc(Nc3cc(Cl)ccc3C)nc2n1
	> 50 µM (inactive)	CN1CCN(c2ccc3nc(-c4ccccc4)c(-c4ccccc4)nc3c2)CC1
4.41		COc1ccccc1CNC(=O)Nc1cccc2ccccc12
5.51		O=S(=O)(c1cccc(F)c1)N1CCc2nc3ccccc3n2CC1
4.51		Cc1ccc(C(=O)NCC(=O)Nc2nc3ccccc3[nH]2)c(C)c1
5.75		O=C(Nc1ccccc1-c1nc2ccccc2[nH]1)c1sc2ccccc2c1Cl
4.86		O=C(CN1C(=O)C2CCCC2=Nc2ccccc21)Nc1cc(F)ccc1F (stereo unspecified)
4.47		Cc1nnc(NCc2cccnc2)c2c1nnn2Cc1ccccc1Cl
	> 50 µM (inactive)	Cc1cc(C#N)c2c(C)ccc(C(C)C)cc1-2
	> 50 µM (inactive)	COc1ccccc1/C=C/C(=O)Nc1nc2n(n1)C(c1ccc(Cl)cc1)CC(=O)N2 (stereo unspecified)
	> 50 µM (inactive)	Cc1ccc(/C=C/C(=O)Nc2ccc3c(c2)OCCO3)cc1
4.66		O=C(Nc1ccc(Cl)cc1)Nc1cccn2ncnc12
	> 50 µM (inactive)	Cc1cc(C)c2c(-n3cccc3)c(C(=O)NCCc3ccc(S(N)(=O)=O)cc3)sc2n1
4.71		O=C1CC(c2cc3c(cc2Br)OCO3)c2cc3c(cc2N1)OCCO3 (stereo unspecified)
	> 50 µM (inactive)	COc1ccc(Nc2ncc(C(=O)Nc3ccc(Oc4ccccc4)cc3)c3ccccc23)cc1
